Test results from paper PMC4434572, “Identification of novel drugs to target dormant micrometastases” (BMC Cancer, 2015).
Read-outs that look alike come from different tables or passages of the source.

Columns and labels:
[1] = system: 4T1 parental cells; assay: EC50 on parental 4T1 cell line grown on plastic surface; format: cell-based, mouse
Procedure: Because cancer stem cells are highly resistant to conventional chemotherapy and are thought to initiate tumors, the activity of the DT series of drugs was also checked against cancer stem cells obtained from the 4T1 line. […] For comparison the EC50 values of DT310, DT320, and doxorubicin were determined in 4T1 parental cells plated on plastic. Because this assay targeting stem cells was performed in suspension culture, we also tested whether SISgel differentiated the stem cells. As indicated by the presence of pluripotency markers (Nanog, Sox2, Oct4), the cells retained their pluripotency markers on SISgel (Fig. 5). […] The 4T1 stem cells could not be tested on Matrigel or on plastic because they differentiate and are therefore no longer stem cells. 4T1 cancer stem cells were much more sensitive to the DT agents, particularly to DT320, than to conventional chemotherapeutic drugs.

[2] = system: 4T1 Luc2-GFP cells; assay: Orthotopic 4T1 syngeneic model of triple-negative breast cancer with natural lung metastasis; format: in vivo, BALB/c mice; details: for number of large multicellular micrometastases and vascularized macrometastases to the lung: i.p. or osmotic pump
Procedure: 4T1 Luc2-GFP cells (PerkinElmer, Waltham, MA) were cultured in DMEM high glucose media with 2 mM pyruvate, 2 mM glutamine, 2 % Pen/Strep and 10 % Cosmic Calf Serum (Mediatech, Manassas, VA). To prepare cells for injection they were removed from flasks, counted using the TC10 counting system (BioRad, Hercules, CA) and checked for viability. Cells were then washed with PBS, pelleted and taken up at a concentration of 75,000 cells/ml; 100 μl of cell suspension (7,500 cells) was injected subcutaneously (bevel side up) into mammary fat pad #4 of 8 weeks old female BALB/c mice (NCI National Laboratory Frederick/Charles River animal production program). All animals were weighed and tumors were measured using calipers three times weekly. Beginning one week after implantation, which is when micrometastatic cells begin to arrive in the lungs, animals were treated three times per week with intraperitoneal DT310 or DT320 at their NOAEL dose of 75 mg/kg three times week dissolved in saline or by osmotic pump. The osmotic pumps (Alzet #2004) delivered an NOAEL dose of 23.4 and 26.7 μg/h of DT310 and DT320, respectively, for 4 weeks and were implanted as directed subcutaneously posterior to scapulae. Docetaxel was delivered once weekly intraperitoneally at its MTD of 15 mg/kg and doxorubicin delivered once weekly at its MTD of 1 mg/kg in 5 % N-Methyl-2-pyrrolidone, 5 % Solutol HS, and 90 % saline. GFP positive cells were imaged with excitation of GFP emission using a Leica Model Z16 APO fluorescence microscope equipped for a wide field, a large depth of field and 0.57–9.2X zoom capability. GFP-positive objects were counted and scored as to whether they were […], clumps of less than ten cells without a visible vasculature, as determined by co-injection of tetramethylrhodamine labeled dextran (2 million MW).

[3] = system: mice; assay: Toxicity / maximum tolerated dose in mice; details: for NOAEL dose, osmotic pump: Alzet #2004 osmotic pump, 4 weeks; for MTD / toxicity in mice: mice
[4] = system: PC-3 (prostate); assay: Proliferation EC50 on SISgel vs monolayer; format: cell-based; details: n = 6-8
Source text: The libraries were obtained from the NCI (Diversity Library I) comprised of 2,918 compounds and a 10,000 compound diversity library from ChemBridge, Inc. (DiverSet-EXP). The NCI library is no longer available in the form used here, but how it was constructed is described (http://dtp.nci.nih.gov/branches/dscb/diversity_explanation.html). The ChemBridge library is a subset (Set Code NM1024) of the full 50,000 compound library (http://www.chembridge.com/screening_libraries/diversity_libraries/). Compounds were diluted to 100 μM before use. SISgel was prepared as described previously from powdered porcine small intestine submucosa obtained from Cook Biotech (W. Lafayette, IN). It is a natural product that is used extensively in tissue engineering as a bioscaffold. J82 bladder cancer cells and other cell lines were obtained from the ATCC (Bethesda, MD). The basic principle is that cells grown on any ECM are, in general, expected to show higher resistance to anticancer compounds than when grown on plastic. Therefore, compounds that show a higher activity toward cancer cells on a normal ECM than on a plastic surface would be candidates to target suppressed, micrometastatic cells. Efficacy in vitro was assessed by plating 30,000 cells in 50 μL of high glucose DMEM with penicillin-streptomycin and 10 % fetal calf serum on SISgel in a 96-well plate containing 50 μL of gelled SISgel per well. Cells were allowed to attach and assume the SISgel phenotype for 48 h. A matching plate without SISgel was prepared 24 h later by pipetting 3,000 cells in 100 μL of high glucose DMEM with penicillin-streptomycin and 10 % fetal calf serum into each well of 96 well plate. The cells were allowed to attach and grow for 24 h. These numbers of cells gave approximately equal replication rates at the time drug was added for cells grown on the plastic surface or SISgel as determined by the fraction of S-phase cells identified by flow cytometry. The cells were exposed to drug in fresh medium for 48 h, at which time the cell number was determined using the CFDA-AM cellular esterase proliferation assay (cat. #C1354, Life Technologies). For screening the results are reported as the ratio of cell count of cells on the plastic surface to the cell count on SISgel. An initial difference of 1.5 fold identified potential hits. All potential hits were confirmed in triplicate. Those compounds that replicated were confirmed by a full dose–response study yielding an EC50 using five wells per drug concentration. Data were analyzed using nonlinear regression to a sigmoid curve with Prism 4 (GraphPad Software, Inc., LaJolla, CA). Potential hits that were confirmed by dose–response using J82 were also tested with MDA-MB-435 breast cancer, PC-3 metastatic prostate cancer, Capan1 pancreatic cancer and the J82 bladder cancer cell lines.

[5] = i.p. injection or osmotic pump, vs untreated
[6] = PC-3 monolayer, read-out: EC50 Monolayer
[7] = PC-3 on SISgel, read-out: EC50 SISgel

Row | Structure (SMILES) | EC50 ([1]; plastic surface) | primary tumor growth [2, 5] | number of large multicellular micrometastases and vascularized macrometastases to the lung [2] | number of single micrometastatic cells and small micrometastases in lung ([2]; osmotic pump administration) | NOAEL dose, osmotic pump [3] | MTD [3] | toxicity in mice [3] | EC50 [4, 6] | EC50 [4, 7] | EC50 ([1]; Mus musculus, 4T1) | primary tumor growth ([2]; administered i.p. at MTD)
1 | O=S(=O)([O-])c1ccc2c(N=Nc3cccc4ccccc34)c(O)c(S(=O)(=O)[O-])cc2c1.[Na+].[Na+] [DT310, 4-(1-naphthalenylhydrazinylidene) -3-oxonaphthalene-2,7-disulfonic acid] | 14.4 µM | significant reduction | most sharply | significant effect | 23.4 µg/h | 65 mg/kg | very low toxicity | – | – | – | –
2 | O=S(=O)([O-])c1cc(O)c2c(O)c(N=Nc3cccc4ccccc34)c(S(=O)(=O)[O-])cc2c1.[Na+].[Na+] [DT320, 4,5-Dihydroxy-3-(1-naphthalenylazo)-2,7-naphthalenedisulfonic acid disodium salt] | 19.7 µM | significant reduction | – | – | 26.7 µg/h | 75 mg/kg | very low toxicity | 41.5 ± 4.1 µM | 19.7 ± 2 µM | – | –
3 | COc1cccc2c1C(=O)c1c(O)c3c(c(O)c1C2=O)C[C@@](O)(C(=O)CO)C[C@@H]3O[C@H]1C[C@H](N)[C@H](O)[C@H](C)O1 [Doxorubicin, reference compound] | – | – | only minimal effects | – | – | – | – | 104 ± 6.1 µM | 102 ± 7 µM | 4.7 µM | small effect
